Publication PMC5986654, “Combined HAT/EZH2 modulation leads to cancer-selective cell death” (Oncotarget, 2018)

Key:
[1] = test system: endometrial stromal cells; experiment: Cytotoxic effect on immortalized non-cancer endometrial stromal cells; type: cell-based
[2] = test system: U937 cells; experiment: U937 leukemia xenograft, human CD45+ cells in bone marrow; type: in vivo, mice; settings: 1 mg/kg i.p., day 16
Protocol: Xenograft studies using NB4 and U937-AML cells were performed in NOG SCID mice under specific pathogen–free conditions. Cells (0.2 × 10^6 in 100 µL) were injected intravenously (retro orbital vein). Injected mice were randomly assigned to receive intra-peritoneal MC2884 (1 mg/kg) or vehicle for two weeks (8 doses) (10 mice per group). All animal procedures were performed in accordance with protocols approved by the local Committee for Animal Experimentation and with the permission of the Italian Health Ministry (n° 626/2015). At 16 days after injection, mice were sacrificed and the femurs and spleens were collected. Bone marrow (BM) and spleen cells were analyzed by FACS. To avoid non-specific stain, cells were mixed with mouse IgG and incubated with indicated antibodies for 30’. The mixture was depleted of erythrocytes and fixed (BD Pharmingen). […] Tumor growth was monitored by weekly bioluminescence imaging (BLI) acquisitions using an IVIS 3D Imaging System (Caliper Alameda, USA). To quantify bioluminescence, the integrated fluxes of photons (photons per s) within each area of interest were determined using the Living Images Software Package 3.2 (Caliper, Alameda, USA). […] Efficacy of drug treatment was assessed as inhibition of BLI emission comparing those MC2884 treated mice group and vehicle groups.

[3] = target: T1, CYP1A (Homo sapiens, UniProt P05177); experiment: Cytochrome P450 inhibition, CYP1A; type: in vitro ADME; settings: human liver microsomes, probe ethoxyresorufin
T1 construct: from tissue; host or cells: human liver microsomes
Protocol: This provided a dose of 2 mg free base material/kg when Cytochrome p450 inhibition (5 isoform iC50 administered iv in a 5 mL/kg dosing volume. determination) mouse terminal ip pK study ADME-Tox Cytochrome P450 inhibition of Compound MC2884 was given ip at a dose of 2 mg/kg MC2884 using human liver microsomes as an estimation to a group of 24 normally fed male CD1 mice in a 10 mL/ of in vitro metabolism. kg injection volume. Terminal blood samples (> 230 μL) MC2884 (0.1 μM–25 μM) was incubated with were taken under CO2 from groups of 3 mice at each of 8 human liver microsomes and NADPH in the presence time-points post dose (0.083, 0.25, 0.5, 1, 2, 4, 8 and 24 h) of a cytochrome P450 isoform-specific probe substrate. and placed into heparinized tubes. Samples were placed on ice For the CYP2C9, CYP2C19, CYP2D6 and CYP3A4 for no longer than 30 min before centrifugation (10,000 rpm × specific reactions, the metabolites were monitored by 3 min). […]
Cyp2C19 inhibition (0.1 mg/mL) and NADPH (1 mM) in the presence of the probe substrate midazolam (2.5 μM) for 5 min at Six test compound samples at concentrations 37° C. […] For the CYP1A incubations, the reactions microsomes (0.5 mg/mL) and NADPH (1 mM) in the were terminated by methanol, and the formation of the presence of the probe substrate mephenytoin (25 μM) metabolite, resorufin, was monitored by fluorescence for 60 min at 37° C. […]

T1 sequence (P05177 2-516 limits assumed): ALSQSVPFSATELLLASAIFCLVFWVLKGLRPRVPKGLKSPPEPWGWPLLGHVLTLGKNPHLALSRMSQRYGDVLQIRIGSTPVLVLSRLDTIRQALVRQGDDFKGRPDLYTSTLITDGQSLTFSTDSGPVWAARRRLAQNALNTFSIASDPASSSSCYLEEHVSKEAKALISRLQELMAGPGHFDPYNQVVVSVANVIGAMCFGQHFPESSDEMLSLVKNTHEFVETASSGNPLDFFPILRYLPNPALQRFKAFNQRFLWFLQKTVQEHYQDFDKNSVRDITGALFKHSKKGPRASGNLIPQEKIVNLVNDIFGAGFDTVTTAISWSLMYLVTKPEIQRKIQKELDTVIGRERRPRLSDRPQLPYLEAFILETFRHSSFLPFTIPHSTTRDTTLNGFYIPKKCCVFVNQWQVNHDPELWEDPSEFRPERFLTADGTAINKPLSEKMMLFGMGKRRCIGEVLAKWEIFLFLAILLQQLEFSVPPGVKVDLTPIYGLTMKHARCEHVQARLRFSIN

## O=C1/C(=C/c2cccc(Br)c2)CN(Cc2ccccc2)C/C1=C\c1cccc(Br)c1 [MC2884]
[1]
  cytotoxic effect on endometrial stromal cells: insensitive
[2]
  human CD45+ cells in the bone marrow reduced to: 24%
[3]
  IC50: > 25 µM
